This assay has as its target T1, mutated beta-galactosidase (p.R60H canine GLB1) in GM11473 fibroblasts (Canis lupus familiaris, UniProt Q9TRY9, R60H).
T1 construct: host or cells: GM11473 canine GM1 gangliosidosis fibroblasts
T1 sequence (Q9TRY9 30-668 R60H): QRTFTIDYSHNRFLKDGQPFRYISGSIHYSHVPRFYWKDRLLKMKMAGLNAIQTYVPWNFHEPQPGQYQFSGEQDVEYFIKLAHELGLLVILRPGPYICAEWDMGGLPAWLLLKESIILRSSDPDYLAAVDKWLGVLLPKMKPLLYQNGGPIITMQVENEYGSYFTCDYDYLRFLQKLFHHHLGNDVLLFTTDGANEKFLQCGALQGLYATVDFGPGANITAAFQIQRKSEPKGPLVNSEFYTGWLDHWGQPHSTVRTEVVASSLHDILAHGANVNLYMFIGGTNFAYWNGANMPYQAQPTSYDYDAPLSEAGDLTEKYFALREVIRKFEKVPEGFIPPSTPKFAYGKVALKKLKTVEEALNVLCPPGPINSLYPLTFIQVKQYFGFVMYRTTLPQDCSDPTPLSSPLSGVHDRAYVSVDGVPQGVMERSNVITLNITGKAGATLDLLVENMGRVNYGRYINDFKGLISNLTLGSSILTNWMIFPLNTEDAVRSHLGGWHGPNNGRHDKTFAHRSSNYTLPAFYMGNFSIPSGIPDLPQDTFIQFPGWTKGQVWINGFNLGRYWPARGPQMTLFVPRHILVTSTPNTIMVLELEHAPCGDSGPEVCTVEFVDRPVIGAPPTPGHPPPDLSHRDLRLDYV
Description: Enhancement of β-galactosidase activity measured in GM1 fibroblasts (GM11473), 4-MU-β-D-galactopyranoside substrate. It is filed as cell-based. Further details: key: Increase in comparison with non-treated of >2.5 fold is shown as A; Increase in comparison with non-treated of >1.7-2.5 fold is shown as B; Increase in comparison with non-treated of 1.2-1.7 fold is shown as C; D means that no increase compared with non-treated cells was detected in this method. The note with it: increase in β-galactosidase enzyme activity vs non-treated cells, concentrations between 6 and 50 μM, 4 days incubation. How it is done: The capacity of the Compounds of the Disclosure to enhance mutated beta-galactosidase activity levels in GM1 fibroblasts was assayed as follows.
Fibroblasts homozygous for a GM1 gangliosidosis missense mutation (GM11473) (canine fibroblasts homozygous for the GM1 gangliosidosis missense mutation p.R60H equivalent to human p.R59H mutation) were purchased from Coriell Institute for Medical Research (Camden, N.J., USA).
Fibroblasts were seeded at 4×10^4 cells per well in 12-well cell culture plates in Dulbecco's Modified Eagle's Media (DMEM) supplemented with 10% of fetal bovine serum (FBS), 1% penicillin/streptomycin (P/S) (Thermo Fisher Scientific, Waltham, Mass., USA) and incubated at 37° C., 5% CO2 overnight for cell attachment. Subsequently, cells were incubated in the absence or presence of the compounds at the desired concentration for 4 days. After incubation, cells were washed twice with phosphate-buffered saline (“PBS”) and detached using Trypsin-EDTA solution (Sigma Aldrich, St. Louis, Mo., USA) to prepare cell pellets. The pellets were stored at −80° C. until activity assays were performed.
β-Galactosidase activity in cell lysates was measured by using 4-Methylumbelliferyl-β-D-galactopyranoside substrate (Sigma Aldrich, St. Louis, Mo., USA). Briefly, lysates were resuspended in 200 μL of 0.9% NaCl containing 0.01% triton X-100 lysis buffer to promote membrane disruption. The cell suspension was sonicated and centrifuged to remove insoluble materials. Then, lysates were mixed with 4-MU-β-D-galactopyranoside in 100 mM citrate buffer (pH=4) and 100 mM NaCl for 60 min at 37° C. The reaction was terminated by adding 100 mM glycine-NaOH buffer (pH=10.7). The liberated 4-MU was measured on a GloMax Discover plate reader (Promega, Madison, Wis., USA) with excitation at 340 nm and emission at 460 nm. Protein quantification was determined using Pierce BCA Protein Assay Kit (Thermo Fisher Scientific, Waltham, Mass., USA). Measurements were interpolated in a 4-MU standard curve and normalized by protein quantity. Enzyme activities were expressed in treated cells as X-fold increase in comparison with non-treated cells (X=1 represents no enhancement).
The capacity of the Compounds of the Disclosure to produce an increase in β-galactosidase enzyme activity in canine GM1 fibroblasts bearing p.R60H canine GLB1 mutation at concentrations between 6 and 50 μM is denoted as follows: • Increase in comparison with non-treated of >2.5 fold is shown as A. • Increase in comparison with non-treated of >1.7-2.5 fold is shown as B. • Increase in comparison with non-treated of 1.2-1.7 fold is shown as C. • D means that no increase compared with non-treated cells was detected in this method. • ND means “not determined.”

For the compound `COc1cccc(CNC(=O)c2ccc(Nc3nccc4ccc(Cl)cc34)nc2)c1` [Example 57, 6-((7-Chloroisoquinolin-1-yl)amino)-N-(3-methoxybenzyl)nicotinamide], the “Activity in GM11473 fibroblasts” value is “C (Increase in comparison with non-treated of 1.2-1.7 fold is shown as C)”.
The entry for `O=C(NCc1ccc2nsnc2c1)c1ccc(Nc2nccc3ccc(Cl)cc23)nc1` [Example 59, N-(benzo[c][1,2,5]thiadiazol-5-ylmethyl)-6-((7-chloroisoquinolin-1-yl)amino)nicotinamide] is “C (Increase in comparison with non-treated of 1.2-1.7 fold is shown as C)”; for `O=C(NC1CCc2ccccc2C1)c1ccc(Nc2nccc3ccc(Cl)cc23)nc1` (stereo not drawn) [Example 60, 6-((7-Chloroisoquinolin-1-yl)amino)-N-(1,2,3,4-tetrahydronaphthalen-2-yl)nicotinamide] it is “C (Increase in comparison with non-treated of 1.2-1.7 fold is shown as C)”; for `O=C(NCc1ccc2c(c1)OCO2)c1ccc(Nc2nccc3ccc(Cl)cc23)nc1` [Example 62, N-(benzo[d][1,3]dioxol-5-ylmethyl)-6-((7-chloroisoquinolin-1-yl)amino)nicotinamide] it is “D”.
Under `O=C(NCc1ccc2c(c1)CCCO2)c1ccc(Nc2nccc3ccc(Cl)cc23)nc1` [Example 63, 6-((7-Chloroisoquinolin-1-yl)amino)-N-(chroman-6-ylmethyl)nicotinamide] stands “C (Increase in comparison with non-treated of 1.2-1.7 fold is shown as C)”.
The entry for `O=S(=O)(NCC(c1cccnc1)N1CCCC1)c1cccc(Nc2nccc3ccc(Cl)cc23)c1` (stereo not drawn) [Example 65, 3-((7-Chloroisoquinolin-1-yl)amino)-N-(2-(pyridin-3-yl)-2-(pyrrolidin-1-yl)ethyl)benzenesulfonamide] is “C (Increase in comparison with non-treated of 1.2-1.7 fold is shown as C)”; for `O=S(=O)(NCC(c1ccccn1)N1CCOCC1)c1cccc(Nc2nccc3ccc(Cl)cc23)c1` (stereo not drawn) [Example 66, 3-((7-Chloroisoquinolin-1-yl)amino)-N-(2-morpholino-2-(pyridin-2-yl)ethyl)benzenesulfonamide] it is “C (Increase in comparison with non-treated of 1.2-1.7 fold is shown as C)”; for `Cn1nnc2c(NS(=O)(=O)c3cccc(Nc4nccc5ccc(Cl)cc45)c3)cccc21` [Example 67, 3-((7-Chloroisoquinolin-1-yl)amino)-N-(1-methyl-1H-benzo[d][1,2,3]triazol-4-yl)benzenesulfonamide] it is “C (Increase in comparison with non-treated of 1.2-1.7 fold is shown as C)”.
`O=S(=O)(NCc1ccc2c(c1)OCCO2)c1cccc(Nc2nccc3ccc(Cl)cc23)c1` [Example 69, 3-((7-Chloroisoquinolin-1-yl)amino)-N-((2,3-dihydrobenzo[b][1,4]dioxin-6-yl)methyl)benzenesulfonamide]: the “Activity in GM11473 fibroblasts” value is “D”.
Under `O=S(=O)(NC1CCc2ccccc2C1)c1cccc(Nc2nccc3ccc(Cl)cc23)c1` (stereo not drawn) [Example 70, 3-((7-Chloroisoquinolin-1-yl)amino)-N-(1,2,3,4-tetrahydronaphthalen-2-yl)benzenesulfonamide] stands “C (Increase in comparison with non-treated of 1.2-1.7 fold is shown as C)”; under `Cn1nnc2cc(CNS(=O)(=O)c3cccc(Nc4nccc5ccc(Cl)cc45)c3)ccc21` [Example 71, 3-((7-Chloroisoquinolin-1-yl)amino)-N-((1-methyl-1H-benzo[d][1,2,3]triazol-5-yl)methyl)benzenesulfonamide], “C (Increase in comparison with non-treated of 1.2-1.7 fold is shown as C)”; under `O=S(=O)(NCC(c1ccccn1)N1CCOCC1)c1ccc(Nc2nccc3ccc(Cl)cc23)cc1` (stereo not drawn) [Example 72, 4-((7-Chloroisoquinolin-1-yl)amino)-N-(2-morpholino-2-(pyridin-2-yl)ethyl)benzenesulfonamide], “D”.
The entry for `Cn1nnc2c(NS(=O)(=O)c3ccc(Nc4nccc5ccc(Cl)cc45)cc3)cccc21` [Example 73, 4-((7-Chloroisoquinolin-1-yl)amino)-N-(1-methyl-1H-benzo[d][1,2,3]triazol-4-yl)benzenesulfonamide] is “D”; for `O=S(=O)(NCc1ccc2nsnc2c1)c1cccc(Nc2nccc3ccc(Cl)cc23)c1` [Example 74, N-(benzo[c][1,2,5]thiadiazol-5-ylmethyl)-3-((7-chloroisoquinolin-1-yl)amino)benzenesulfonamide] it is “D”; for `O=S(=O)(NCc1ccc2c(c1)OCCO2)c1ccc(Nc2nccc3ccc(Cl)cc23)cc1` [Example 75, 4-((7-chloroisoquinolin-1-yl)amino)-N-((2,3-dihydrobenzo[b][1,4]dioxin-6-yl)methyl)benzenesulfonamide] it is “B (Increase in comparison with non-treated of >1.7-2.5 fold is shown as B)”.
As to `O=S(=O)(NCc1ccc2nsnc2c1)c1ccc(Nc2nccc3ccc(Cl)cc23)cc1` [Example 76, N-(benzo[c][1,2,5]thiadiazol-5-ylmethyl)-4-((7-chloroisoquinolin-1-yl)amino)benzenesulfonamide], the “Activity in GM11473 fibroblasts” value is given as “C (Increase in comparison with non-treated of 1.2-1.7 fold is shown as C)”.
As for `O=S(=O)(NC1CCc2ccccc2C1)c1ccc(Nc2nccc3ccc(Cl)cc23)cc1` (stereo not drawn) [Example 77, 4-((7-Chloroisoquinolin-1-yl)amino)-N-(1,2,3,4-tetrahydronaphthalen-2-yl)benzenesulfonamide], the “Activity in GM11473 fibroblasts” value is listed as “A (Increase in comparison with non-treated of >2.5 fold is shown as A)”.
Under `O=S(=O)(NCC1CCc2ccccc2C1)c1ccc(Nc2nccc3ccc(Cl)cc23)cc1` (stereo not drawn) [Example 78, 4-((7-Chloroisoquinolin-1-yl)amino)-N-((1,2,3,4-tetrahydronaphthalen-2-yl)methyl)benzenesulfonamide] stands “A (Increase in comparison with non-treated of >2.5 fold is shown as A)”.
